The values below come from patent US10391015B2, “Apparatus and method for restoring voluntary control of locomotion in neuromotor impairments” (ECOLE POLYTECHNIQUE FEDERALE DE LAUSANNE (EPFL), priority 2012, dated 2019).

In test [1] the test system is T8-T9 neurons. Kind of test: Ablation of T8-T9 neurons by NMDA infusion in overground-trained SCI rats. It is filed as in vivo, rat. As to conditions: overground-trained rats with T7/T10 staggered hemisections, NMDA 1% in dH2O into 14 sites, tested 5 days post-lesion, p<0.01, functionality of lumbosacral circuits uncompromised. On the procedure: (§1) To ablate T8-T9 neurons, we infused NMDA (1% in dH2O) into 14 sites (depth 1 mm, total volume 3 μl) covering spinal levels T8-T9. Rats were tested 5 days post-lesion, and sacrificed on the following day. The ablation of neurons was verified post mortem on tissue sections stained with mouse anti-NeuN (1:500, Chemicon, USA) antibodies. To inactivate the motor cortex, we injected the GABA-agonist muscimol intra-cortically (800 nl, 4.5 mg/Kg). Five days prior to experiments, we stereotaxically implanted a catheter (OD: 0.61 mm, ID: 0.28 mm) into the left motor cortex at a depth of 1.5 mm. Proper catheter location was verified post mortem on tissue sections stained (Invitrogen, USA) for fluorescent Nissl visualization.
Anatomical examinations highlighted an extensive remodelling of supraspinal and intraspinal projections in rats that regained voluntary locomotion. We first conducted retrograde tract tracing from L1-L2 locomotor centers. We found a significant increase (p<0.01) in the number of labeled neurons in intermediate and ventral laminae of T8-T9 segments in both overground-trained and treadmill-trained rats compared to non-trained animals. Analysis of the activity-dependent marker cfos after continuous overground locomotion confirmed that the labeled neurons were active during walking. […]

The subject of test [2] is left motor cortex. In words: Inactivation of the motor cortex by muscimol microinjection in overground-trained SCI rats. In kind it is in vivo, rat. As to conditions: overground-trained rats with T7/T10 staggered hemisections; intra-cortical microinjection into left motor cortex (800 nl, 4.5 mg/Kg); p<0.01; functionality of lumbosacral circuits uncompromised. On the procedure: as §1
Contrary to primates, the rodent motor cortex is not essential to produce locomotion (G. Courtine et al., Can experiments in nonhuman primates expedite the translation of treatments for spinal cord injury in humans? Nature medicine 13, 561 (May, 2007)). […] First, we implanted stimulating epidural electrodes over the left motor cortex to verify that the reorganization of neuronal pathways re-established connectivity across the lesion. […] Second, we implanted a microwire array in the vicinity of CST neurons projecting to T8-T9 segments, and recorded neuronal modulations during voluntary locomotion in overground-trained rats (n=3). […]

`CN[C@H](CC(=O)O)C(=O)O` [NMDA, N-methyl-D-aspartic acid]: the “effect on regained voluntary locomotion” value in test [1] is “abolished the regained voluntary locomotion”. With `NCc1cc(=O)[nH]o1` [Muscimol, muscimol], the “effect on voluntary hindlimb locomotion” value in test [2] was “immediately suppressed voluntary hindlimb locomotion”.
